Assay results: patent US11608319B2, “Beta-amino acid derivative, kinase inhibitor and pharmaceutical composition containing the same, and method for performing an in vivo related application that benefits from the inhibition of a kinase” (Industrial Technology Research Institute, priority 2019, dated 2023)
“And” between values parts separate entries of the source, which are not always exact repeats. Equal entries are not always repeated. Structures can show the parent of a compound that is named as a salt. Where two headings read alike, the source gives them in different places.

Assays:
[1] = test system: rabbit eyes with high intraocular pressure induced by magnetic beads; assay: Model of magnetic bead induced high intraocular pressure rabbit (intraocular pressure >30 mmHg); type: in vivo, New Zealand white rabbit; details: for Maximum intraocular pressure difference (mmHg): experiment of Table 13
Text: Evaluation of the effect of reducing intraocular pressure in model of magnetic bead induced high intraocular pressure rabbit (high intraocular pressure model with intraocular pressure >30 mmHg)
Experimental animal: New Zealand white rabbit, male, body weight 2.0-3.0 kg. New Zealand white rabbits were purchased from Huijun Farm (Changhua, Taiwan) before the experiment and were raised in the Animal Center of National Chiao Tung University.
Experimental method: After weighing and grouping male New Zealand white rabbits, the New Zealand white rabbits were anesthetized with Zoletil 50 0.2 mL/kg. 50 μL of magnetic bead solution (50 mg/mL, magnetic bead size of 10 μm) was injected into the left and right anterior eye chambers of the rabbit under anesthesia to make rabbit eyes become a state of high intraocular pressure. After the injection to the anterior chamber of the eye, a strong […] iron magnet ring was immediately put around the eye for 10-20 minutes to make the magnetic beads completely block the drainage tissue of the aqueous humor. After disinfecting the eyeball with antibiotics, moisturizing eye ointment was provided to restore the eyeball, and the intraocular pressure rising was waited. […] The experiment was conducted for 2 consecutive days.

[2] = test system: rabbit eyes with high intraocular pressure induced by hypertonic saline; assay: Model of hypertonic saline induced high intraocular pressure rabbit (acute high intraocular pressure model); type: in vivo, New Zealand white rabbit; set-up: AUC: unit not given beside the values; details: for AUC: intraocular pressure over 0-5 hours; for Maximum intraocular pressure difference (%) / Maximum intraocular pressure difference (mm Hg): versus physiological saline group
Text: Evaluation of the effect of reducing intraocular pressure in model of hypertonic saline induced high intraocular pressure rabbit (acute high intraocular pressure model)
Experimental animal: New Zealand white rabbit, male, weighing 2.0-3.0 kg. New Zealand white rabbits were purchased from a qualified laboratory animal rabbit farm in Taiwan before the experiment and were raised in the Animal Center of National Chiao Tung University.
Negative control 1: Physiological saline
Negative control 2: Vehicle without test substance (containing 5% mannitol, 20 mM boric acid and 0.125% nonoxynol-9)
Experimental method: male New Zealand white rabbits were weighed and grouped and then anesthetized. 160 μL of hypertonic saline (5% NaCl) was injected into the vitreous bodies of the left and right eyes of the rabbit under anesthesia, so that the rabbit eyes became a state of high intraocular pressure. […] The intraocular pressure (TOP) detection time points were before anesthesia (0 hours) and 0.5, 1, 1.5, 3, and 5 hours after administration.
Maximum intraocular pressure difference: The difference between an individual's TOP readings and the average TOP readings of the negative control group 1 (physiological saline) at the time point at which the maximum response is recorded (J Ocul Pharmacol Ther. 2010 April; 26(2): 125-132)

[3] = test system: rabbit eyes; assay: Safety margin assay (eye irritation, OECD/OCDE 405)
[4] = biological target: MYLK4 (Homo sapiens (Human), UniProt Q86YV6); assay: Assay for inhibitory effect on MYLK-4, LanthaScreen Eu Kinase Binding Assay
[5] = test system: rabbit eyes with normal intraocular pressure; assay: Evaluation of the effect of decreasing intraocular pressure in a model of rabbit with normal intraocular pressure; type: in vivo, New Zealand white rabbit; details: for Intraocular pressure difference (mmHg): at time point of maximum effect
Procedure: Evaluation of the Effect of Decreasing Intraocular Pressure in a Model of Rabbit with Normal Intraocular Pressure
Experimental animal: New Zealand white rabbit, male, weighing more than 2 kg. New Zealand white rabbits were purchased from Huijun Farm (Changhua, Taiwan). After a one-week quarantine period, they were raised in MASTER LABORATORY Co., Ltd under the environmental conditions of 16-22° C., 30-70% relative humidity (RH), 8 hours day/16 hours night.
(1) Evaluation of the Effect of Reducing Intraocular Pressure
After weighing 12 New Zealand white rabbits (2.0-4.0 kg) and grouping them (n=3-6 in each group), the white rabbits were fixed with a wrap.

[6] = test system: patients; details: cited from earlier work
[7] = test system: humans; details: phase III clinical trial; cited from earlier work
[8] = biological target: ROCK1 (Homo sapiens (Human), UniProt Q13464); assay: biochemical
[9] = test system: rabbit eyes; assay: Eye irritation evaluation (OECD/OCDE 405); type: in vivo, New Zealand white rabbit
Text: (2) Irritation Evaluation

[10] = test system: normal macaques; assay: Intraocular pressure in animal model of macaque with normal intraocular pressure; type: in vivo; details: eye drop 0.1% or 0.03%
Procedure: The intraocular pressure of animals was measured by a pneumatic tonometer (Model 30™ Pneumatonometer). Animal anesthesia was required before intraocular pressure measurement. After topical administration (once a day), the intraocular pressure of the animals was measured at the set time points.

[11] = biological target: YSK4 (Homo sapiens (Human), UniProt Q56UN5); assay: Assay for inhibitory effect on YSK-4, Z'-LYTE kinase assay; type: biochemical
Procedure: C. Assay for Inhibitory Effect on YSK-4
The experimental procedure referred to the Z′-LYTE Screening Protocol and Assay Conditions provided by ThermoFisher Scientific.
C-1. Material Preparation
Peptide/Kinase Mixture was pre-diluted with Kinase Buffer to 2× working concentration.
ATP solution was pre-diluted with Kinase Buffer (50 mM HEPES pH 7.5, 0.01% BRIJ-35, 10 mM MgCl2, 1 mM EGTA) to 4× working concentration.
The development reagent solution is Novel PKC Lipid Mix, which contains 2 mg/mL Phosphatidyl Serine, 0.2 mg/mL DAG in 20 mM HEPES, pH 7.4 and 0.3% CHAPS, and was pre-diluted 10 fold with development buffer.
1. 100 nL of the above diluted test compound and 2.4 μL of kinase buffer were added to a black 384-well plate (Corning, Cat. NO. 4514), then add 5 μL of the peptide/kinase mixture mentioned above was added thereto, and after that 2.5 μL of ATP solution was added thereto, and the culture plate was shaken for 30 seconds.
2. Next, the culture plate was placed at room temperature and incubated for 60 minutes.
3. After that 5 μL of the development reagent solution was added and the culture plate was shaken for 30 seconds in the dark, and then the data was read and analyzed with a fluorescence plate reader.
In addition, for the kinase, the following control group was prepared and placed on the same culture plate as the kinase:
(1) 0% Phosphorylation Control (100% Inhibition Control)
This control yields 100% cleaved peptide in the Development Reaction.
(2) 100% Phosphorylation Control
A synthetically phosphorylated peptide of the same sequence as the peptide substrate is used as the 100% Phosphorylation Control.
The Phosphorylation percent achieved in a specific reaction well (Experimental group) was calculated based on the 0% Phosphorylation Control and 100% Phosphorylation Control.

[12] = test system: cornea of rabbit eyes; assay: Observation of cornea with a slit lamp after 7 days of administration; type: in vivo, New Zealand white rabbit; details: 0.1% eye drops, continuous administration for 7 days, once a day
[13] = Content analysis for candidate drug in aqueous humor, iris and ciliary body after administration
Text: (4) Content Analysis for Candidate Drug in Aqueous Humor (AH) after Administration

[14] = test system: rabbit eyes with normal intraocular pressure; details: for maximum effect (Emax) dose in the normal intraocular pressure rabbit model: eye drop concentration
Procedure: The maximal effect (Emax) dose evaluation of the intraocular pressure reduction model in normal rabbit
Animals: Male New Zealand white rabbits (n=7/each group);
Administration: 50 μL of the test compound was instilled in the right eye (dosed eye) and 50 μL of the vehicle (without the test compound) in the left eye (control eye) of each experimental animal. The 3 formulation mentioned above were administered once a day for 3 consecutive days.
The intraocular pressure of each animal was measured by Tono-Vet (iCare) before administration (0 hours) and 2, 4, 6 and 8 hours after administration on Day 1 and Day 3.
The maximum magnitude of the reduction in intraocular pressure %=(Intraocular pressure of the control eye−Intraocular pressure of the dosed eye)/Intraocular pressure of the control eye*100
The data presented in this experiment is the data that has removed the unqualified data (white rabbits with an intraocular pressure difference ≥2 mmHg (n=1) in the two eyes on Day 1 and >5 mmHg in the two eyes before the administration on the Day 3 (n=1) have been removed) and removed the rebound high intraocular pressure (n=3).

[15] = eye drops containing 0.1% and 0.03% Compound 20

Chain of MYLK4 (Q86YV6 whole entry): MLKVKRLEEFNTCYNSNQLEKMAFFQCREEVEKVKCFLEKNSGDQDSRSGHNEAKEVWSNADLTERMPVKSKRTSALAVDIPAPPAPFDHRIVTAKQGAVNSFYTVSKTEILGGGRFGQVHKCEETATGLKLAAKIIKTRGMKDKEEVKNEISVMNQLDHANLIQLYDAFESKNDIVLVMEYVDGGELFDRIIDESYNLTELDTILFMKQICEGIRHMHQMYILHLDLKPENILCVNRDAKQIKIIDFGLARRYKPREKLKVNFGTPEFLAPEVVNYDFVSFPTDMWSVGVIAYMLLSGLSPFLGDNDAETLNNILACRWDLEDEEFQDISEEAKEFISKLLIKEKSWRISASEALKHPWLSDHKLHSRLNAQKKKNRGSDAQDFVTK
Chain of ROCK1 (Q13464 whole entry, species assumed): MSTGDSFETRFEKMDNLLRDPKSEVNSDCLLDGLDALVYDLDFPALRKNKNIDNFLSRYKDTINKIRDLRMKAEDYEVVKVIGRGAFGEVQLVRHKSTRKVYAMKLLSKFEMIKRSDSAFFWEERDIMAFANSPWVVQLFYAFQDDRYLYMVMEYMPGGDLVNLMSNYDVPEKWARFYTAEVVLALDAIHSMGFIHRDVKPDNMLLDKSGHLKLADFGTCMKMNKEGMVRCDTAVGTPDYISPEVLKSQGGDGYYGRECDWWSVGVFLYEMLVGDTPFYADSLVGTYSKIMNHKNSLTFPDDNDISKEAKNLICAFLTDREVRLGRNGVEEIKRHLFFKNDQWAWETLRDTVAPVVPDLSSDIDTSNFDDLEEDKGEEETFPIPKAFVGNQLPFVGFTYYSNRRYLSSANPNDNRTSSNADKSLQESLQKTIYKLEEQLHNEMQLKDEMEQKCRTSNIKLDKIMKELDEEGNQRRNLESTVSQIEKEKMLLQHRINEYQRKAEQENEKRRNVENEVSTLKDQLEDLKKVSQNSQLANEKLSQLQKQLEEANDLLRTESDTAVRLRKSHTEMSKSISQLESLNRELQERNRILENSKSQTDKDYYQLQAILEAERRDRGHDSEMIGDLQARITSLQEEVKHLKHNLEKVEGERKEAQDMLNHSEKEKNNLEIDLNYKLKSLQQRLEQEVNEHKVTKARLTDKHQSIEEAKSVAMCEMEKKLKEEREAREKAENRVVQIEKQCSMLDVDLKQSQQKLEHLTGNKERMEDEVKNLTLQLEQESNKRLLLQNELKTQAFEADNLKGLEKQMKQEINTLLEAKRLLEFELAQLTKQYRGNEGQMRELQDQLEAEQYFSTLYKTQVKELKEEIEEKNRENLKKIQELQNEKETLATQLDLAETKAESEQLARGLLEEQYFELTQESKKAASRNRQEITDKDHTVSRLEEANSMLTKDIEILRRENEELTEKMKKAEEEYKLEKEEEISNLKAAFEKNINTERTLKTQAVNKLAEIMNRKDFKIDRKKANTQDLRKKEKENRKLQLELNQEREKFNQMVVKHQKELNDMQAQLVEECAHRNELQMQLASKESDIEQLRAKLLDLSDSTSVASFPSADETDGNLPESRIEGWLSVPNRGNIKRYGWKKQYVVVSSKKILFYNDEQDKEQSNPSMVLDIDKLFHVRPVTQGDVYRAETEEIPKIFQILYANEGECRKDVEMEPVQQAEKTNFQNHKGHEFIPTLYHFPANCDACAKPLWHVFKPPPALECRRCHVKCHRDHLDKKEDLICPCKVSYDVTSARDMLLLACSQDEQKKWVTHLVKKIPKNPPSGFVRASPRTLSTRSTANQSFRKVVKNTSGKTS
Chain of YSK4 (Q56UN5 whole entry): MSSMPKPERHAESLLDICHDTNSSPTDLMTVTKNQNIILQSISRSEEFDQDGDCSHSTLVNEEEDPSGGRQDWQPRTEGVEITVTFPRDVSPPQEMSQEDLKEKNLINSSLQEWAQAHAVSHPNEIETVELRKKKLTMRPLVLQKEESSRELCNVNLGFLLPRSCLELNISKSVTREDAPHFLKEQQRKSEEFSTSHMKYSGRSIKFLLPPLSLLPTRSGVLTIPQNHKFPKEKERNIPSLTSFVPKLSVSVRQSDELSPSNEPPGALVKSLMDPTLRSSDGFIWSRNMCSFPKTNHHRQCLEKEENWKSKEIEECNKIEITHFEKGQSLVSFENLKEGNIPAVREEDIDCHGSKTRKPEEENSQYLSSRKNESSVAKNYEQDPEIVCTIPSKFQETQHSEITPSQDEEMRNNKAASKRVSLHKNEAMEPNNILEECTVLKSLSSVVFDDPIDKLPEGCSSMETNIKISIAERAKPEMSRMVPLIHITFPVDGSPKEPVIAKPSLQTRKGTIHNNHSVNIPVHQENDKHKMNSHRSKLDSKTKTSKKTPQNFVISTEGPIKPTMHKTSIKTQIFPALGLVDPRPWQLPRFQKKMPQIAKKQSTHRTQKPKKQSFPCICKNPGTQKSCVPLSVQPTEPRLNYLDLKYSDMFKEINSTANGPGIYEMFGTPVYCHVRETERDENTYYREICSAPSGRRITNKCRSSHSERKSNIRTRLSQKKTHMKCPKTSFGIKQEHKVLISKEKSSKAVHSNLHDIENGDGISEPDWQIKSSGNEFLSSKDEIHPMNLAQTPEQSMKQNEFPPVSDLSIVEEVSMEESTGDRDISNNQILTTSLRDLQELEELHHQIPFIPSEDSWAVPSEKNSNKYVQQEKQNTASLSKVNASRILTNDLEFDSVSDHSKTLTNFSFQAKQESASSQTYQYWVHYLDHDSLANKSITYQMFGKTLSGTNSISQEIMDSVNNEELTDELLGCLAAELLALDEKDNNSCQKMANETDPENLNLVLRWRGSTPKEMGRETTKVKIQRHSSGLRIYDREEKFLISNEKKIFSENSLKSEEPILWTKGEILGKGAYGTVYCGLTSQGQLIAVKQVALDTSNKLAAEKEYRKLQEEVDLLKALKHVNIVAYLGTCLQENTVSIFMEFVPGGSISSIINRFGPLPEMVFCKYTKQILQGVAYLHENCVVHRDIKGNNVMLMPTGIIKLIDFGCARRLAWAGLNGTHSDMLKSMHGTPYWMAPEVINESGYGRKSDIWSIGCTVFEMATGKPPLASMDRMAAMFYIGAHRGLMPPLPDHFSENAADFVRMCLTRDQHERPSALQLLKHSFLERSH

Cc1ccc(C(=O)OCc2ccc([C@@H](CN)C(=O)Nc3ccc4cnccc4c3)cc2)c(C)c1 [AR-13324, Netarsudil, reference compound]
Maximum intraocular pressure difference (mmHg) ([1]; dose 0.02%): 3.6 ± 2.1 mmHg
reduction of intraocular pressure in percent ([1]; eye drop containing 0.02%): about 11.0%
AUC ([2]; dose 0.02%): 132.9
Maximum intraocular pressure difference (%) ([2]; dose 0.02%): −20.8%
Maximum intraocular pressure difference (mm Hg) ([2]; dose 0.02%): −7.7 ± 4.2 mm Hg
difference compared with the physiological saline or the vehicle (t-test) ([2]; eye drop containing 0.02%): no statistically significant difference
reduction of the intraocular pressure ([2]; eye drop containing 0.02%): about 7.7±4.2 mmHg
OECD Score: Chemosis ([3]; Therapeutic index: 2): 1
OECD Score: Discharge ([3]; Therapeutic index: 2): 2
OECD Score: Redness ([3]; Therapeutic index: 2): 1
OECD Score: Total ([3]; Therapeutic index: 2): 4
IC50 [4]: > 1000 nM
time point at which maximum effect is achieved ([5]; dose 1%): 6 h
Intraocular pressure difference (mmHg) ([5]; dose 1%): 4.5 mmHg
efficacy compared with Timolol ([6]; patients <25 mmHg): comparable to Timolol
efficacy compared with Timolol ([6]; patients with intraocular pressure >25 mmHg): not as effective as the conventional glaucoma treatment drug Timolol

C[C@H]1CNCCCN1S(=O)(=O)c1cccc2cncc(F)c12 [Ripasudil]
incidence of mild conjunctival hyperemia [7]: up to 75%

NC[C@@H](C(=O)Nc1ccc(-c2cn[nH]c2)cc1)c1ccccc1 [Compound 20, (S)—N-(4-(1H-pyrazol-4-yl)phenyl)-3-amino-2-phenylpropanamide dihydrochloride]
IC50 [8]: 1 to 10 nM
reduction of intraocular pressure in percent ([1]; eye drop containing 0.03%): about 15.3%
reduction of intraocular pressure in percent ([1]; eye drop containing 0.1%): about 28.8%
eye irritation compared with AR-13324 (0.02%) ([9]; Compound 20 at 0.1%): lower than AR-13324
eye irritation [9, 15]: slight
effect in reducing intraocular pressure compared with AR-13324 (t-test) ([2]; 0.1% Compound 20 versus 0.02% AR-13324, p<0.05): significantly better than that of AR-13324
AUC ([2]; dose 0.1%): 99.1
Maximum intraocular pressure difference (%) ([2]; dose 0.1%): −40.4%
Maximum intraocular pressure difference (mm Hg) ([2]; dose 0.1%): −18.0 ± 6.8 mm Hg
reduction of the intraocular pressure ([2]; eye drop containing 0.1%): about 18.0±6.8 mmHg
side effects, such as pink eye [10]: without obvious side effects
effect of reducing intraocular pressure compared with 0.02% AR-13324 ([10]; once a day): equivalent to or better than that of AR-13324
inhibitory effect on YSK4 (in words) [11]: simultaneously targets ROCK, MYLK-4 and YSK-4
state of the cornea [12]: free of damage and turbidity
IC50 [4]: 10 to 100 nM
content in the aqueous humor after administration ([13]; normal rabbits): can reach the requirement of ROCK inhibition
drug concentration at the target tissue (iris and ciliary body, aqueous humor) ([13]; rabbit eyes with normal intraocular pressure): reaches the target effect IC90 or more within 8 hours
dose dependence of the reduction of intraocular pressure ([14]; 0.01%, 0.03%, 0.1%): exhibits a dose dependent effect
increase of the reduction in intraocular pressure on Day 3 compared to Day 1 ([14]; 0.03% Compound 20, on average): ~1 mmHg
The magnitude of intraocular pressure reduction (ΔIOP) (mmHg) ([14]; Day 1, 0.01% Compound 20, 50 μL eye drop): −2.9 ± 1.1 mmHg
The maximum magnitude of the reduction in intraocular pressure ([14]; Day 1, 0.01% Compound 20, versus control eye): 18.7%
The magnitude of intraocular pressure reduction (ΔIOP) (mmHg) ([14]; Day 1, 0.03% Compound 20, 50 μL eye drop): −4.3 ± 1.2 mmHg
The maximum magnitude of the reduction in intraocular pressure ([14]; Day 1, 0.03% Compound 20, versus control eye): 28.3%
The magnitude of intraocular pressure reduction (ΔIOP) (mmHg) ([14]; Day 1, 0.10% Compound 20, 50 μL eye drop): −5.3 ± 0.6 mmHg
The maximum magnitude of the reduction in intraocular pressure ([14]; Day 1, 0.10% Compound 20, versus control eye): 32.2%
The magnitude of intraocular pressure desc (ΔIOP) (mmHg) ([14]; Day 3, 0.01% Compound 20, once a day): −2.7 ± 0.8 mmHg
The maximum magnitude of the reduction in intraocular pressure ([14]; Day 3, 0.01% Compound 20, versus control eye): 15.4%
The magnitude of intraocular pressure desc (ΔIOP) (mmHg) ([14]; Day 3, 0.03% Compound 20, once a day): −5.1 ± 1.2 mmHg
The maximum magnitude of the reduction in intraocular pressure ([14]; Day 3, 0.03% Compound 20, versus control eye): 30.5%
The magnitude of intraocular pressure desc (ΔIOP) (mmHg) ([14]; Day 3, 0.10% Compound 20, once a day): −5.2 ± 1.3 mmHg
The maximum magnitude of the reduction in intraocular pressure ([14]; Day 3, 0.10% Compound 20, versus control eye): 32.6%
maximum effect (Emax) dose in the normal intraocular pressure rabbit model [14]: 0.03%
Tmax ([14]; rabbit, in vivo, dihydrochloride): 6 h and 8 h
time point at which maximum effect is achieved ([5]; dose 0.03%): 8 h
Intraocular pressure difference (mmHg) ([5]; dose 0.03%): 4.9 mmHg
maximum magnitude of the reduction in intraocular pressure [5, 15]: 4.4-4.9 mmHg
time of maximum effect (Emax) after administration [5, 15]: 6 to 8 h

NCC(C(=O)Nc1ccc(-c2cn[nH]c2)cc1)c1ccccc1 (racemic) [Compound 7, N-(4-(1H-pyrazol-4-yl)phenyl)-3-amino-2-phenylpropanamide dihydrochloride]
IC50 [8]: 1 to 10 nM
Maximum intraocular pressure difference (mmHg) ([1]; dose 0.5%): 6.7 ± 1.6 mmHg
Maximum intraocular pressure difference (mmHg) ([1]; dose 1%): 11.8 ± 0.8 mmHg
IC50 ([11]; ATP 5 μM): > 1000 nM
OECD Score: Chemosis ([3]; Therapeutic index: 3): 0
OECD Score: Discharge ([3]; Therapeutic index: 3): 1
OECD Score: Redness ([3]; Therapeutic index: 3): 1
OECD Score: Total ([3]; Therapeutic index: 3): 2
IC50 [4]: 10 to 100 nM
maximum effect (Emax) dose in the normal intraocular pressure rabbit model [14]: 1%
time point at which maximum effect is achieved ([5]; dose 1%): 4 h
Intraocular pressure difference (mmHg) ([5]; dose 1%): 5.1 mmHg
